The text below walks through data of US8802700B2 (Vertex Pharmaceuticals Incorporated, priority 2010, dated 2014).

pEC50: −log10 of the molar value.

The target of the first test is T1, ΔF508-CFTR (Homo sapiens, UniProt P13569, DEL508-508).
T1 construct: expressed in transfected cells
T1 sequence (P13569 with tags, fused parts or gaps DEL508-508): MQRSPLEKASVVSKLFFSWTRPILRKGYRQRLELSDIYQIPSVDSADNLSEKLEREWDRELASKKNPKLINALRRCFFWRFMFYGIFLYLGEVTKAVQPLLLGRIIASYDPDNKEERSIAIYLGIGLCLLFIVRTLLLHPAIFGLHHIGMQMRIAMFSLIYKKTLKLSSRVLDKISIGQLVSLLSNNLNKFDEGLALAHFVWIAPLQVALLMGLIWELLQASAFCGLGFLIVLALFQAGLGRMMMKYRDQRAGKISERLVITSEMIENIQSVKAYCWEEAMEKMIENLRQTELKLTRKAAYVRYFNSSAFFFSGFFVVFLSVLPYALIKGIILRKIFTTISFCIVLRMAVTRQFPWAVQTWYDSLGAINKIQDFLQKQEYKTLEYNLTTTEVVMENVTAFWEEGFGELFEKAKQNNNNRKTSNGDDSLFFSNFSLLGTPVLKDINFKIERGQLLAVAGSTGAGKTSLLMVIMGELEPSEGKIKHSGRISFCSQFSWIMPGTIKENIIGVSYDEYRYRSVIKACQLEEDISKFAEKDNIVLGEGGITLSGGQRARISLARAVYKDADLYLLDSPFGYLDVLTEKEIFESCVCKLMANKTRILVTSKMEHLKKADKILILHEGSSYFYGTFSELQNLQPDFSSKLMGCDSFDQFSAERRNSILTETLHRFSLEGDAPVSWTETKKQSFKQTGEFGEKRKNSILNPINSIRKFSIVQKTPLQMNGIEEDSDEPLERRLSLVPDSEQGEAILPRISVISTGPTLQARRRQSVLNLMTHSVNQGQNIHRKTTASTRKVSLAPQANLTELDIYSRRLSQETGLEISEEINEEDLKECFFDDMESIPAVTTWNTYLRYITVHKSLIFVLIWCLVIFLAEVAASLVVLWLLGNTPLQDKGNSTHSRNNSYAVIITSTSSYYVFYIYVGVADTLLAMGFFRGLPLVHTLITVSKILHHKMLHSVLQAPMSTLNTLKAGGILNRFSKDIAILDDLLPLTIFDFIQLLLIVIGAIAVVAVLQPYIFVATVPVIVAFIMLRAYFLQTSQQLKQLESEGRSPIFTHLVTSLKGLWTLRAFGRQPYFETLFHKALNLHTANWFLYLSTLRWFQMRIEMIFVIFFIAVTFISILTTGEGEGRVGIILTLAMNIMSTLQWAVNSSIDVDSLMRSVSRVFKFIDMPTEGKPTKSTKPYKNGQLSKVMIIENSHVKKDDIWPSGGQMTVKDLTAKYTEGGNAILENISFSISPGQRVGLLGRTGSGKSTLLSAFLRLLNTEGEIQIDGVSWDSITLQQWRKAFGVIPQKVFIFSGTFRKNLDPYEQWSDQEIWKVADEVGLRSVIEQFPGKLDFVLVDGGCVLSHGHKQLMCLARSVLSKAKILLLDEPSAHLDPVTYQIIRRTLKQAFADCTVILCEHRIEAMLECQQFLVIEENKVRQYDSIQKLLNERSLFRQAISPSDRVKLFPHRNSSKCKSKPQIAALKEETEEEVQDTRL
Briefly: Membrane potential optical assay (FRET voltage-sensor dyes, VIPR), identification of potentiator compounds. Type of test: cell-based. The conditions noted are these: Table 3; assay not given. Summed up: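 Potentiator screen measured membrane potential via FRET between CC2-DMPE donor and DiSBAC2(3), read on VIPR II. Compound went in with the first addition of chloride-free gluconate bath; cells were ΔF508-CFTR-expressing NIH3T3 mouse fibroblasts, temperature-corrected at 27 °C for 24 h.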
For orientation: pEC50 means −log10 of the EC50, conventionally taken in molar units. In the case of `O=C(Nc1ccccc1-c1ccc(Cl)cc1Cl)c1c[nH]c2ccccc2c1=O` [Compound 139, N-[2-(2,4-dichlorophenyl)phenyl]-4-oxo-1H-quinoline-3-carboxamide], the pEC50 was over 5.00.

The test is the same for the next values; noted with them: Table 3; assay not given; read-out: % Activity (% Efficacy, relative efficacy).
With `CCOc1cccc(-c2ccccc2NC(=O)c2c[nH]c3ccccc3c2=O)c1` [Compound 306, N-[2-(3-ethoxyphenyl)phenyl]-4-oxo-1H-quinoline-3-carboxamide], the Emax was over 100%.
Still for that read-out and setting: the figure for `COC(=O)[C@]1(C)CCCN1c1ccc(NC(=O)c2c[nH]c3ccccc3c2=O)c(C(F)(F)F)c1` [Compound 631, (S)-methyl 2-methyl-1-(4-(4-oxo-1,4-dihydroquinoline-3-carboxamido)-3-(trifluoromethyl)phenyl)pyrrolidine-2-carboxylate] is over 100%.
On to `O=C(Nc1cccc(Oc2ccccc2)c1)c1c[nH]c2ccccc2c1=O` [Compound 87, 4-oxo-N-(3-phenoxyphenyl)-1H-quinoline-3-carboxamide], for which the Emax was in the range of 25 to 100%.
Take `O=C(Nc1ccccc1SC(F)(F)F)c1c[nH]c2ccccc2c1=O` [Compound 371, 4-oxo-N-[2-(trifluoromethylsulfanyl)phenyl]-1H-quinoline-3-carboxamide]: the Emax lay in the range of 25 to 100%.
On to `O=C(Nc1ccc(C2CCCCC2)c(O)c1)c1c[nH]c2cccc(O)c2c1=O` [Compound 522, N-(4-cyclohexyl-3-hydroxy-phenyl)-5-hydroxy-4-oxo-1H-quinoline-3-carboxamide], for which the Emax was in the range of 25 to 100%.
On the same count and under the same terms, the figure for `Cc1ccc2[nH]cc(C(=O)Nc3ccc(N4CCC(C)(C)C4)cc3C(F)(F)F)c(=O)c2c1` [Compound 489, N-[4-(3,3-dimethylpyrrolidin-1-yl)-2-(trifluoromethyl)phenyl]-6-methyl-4-oxo-1H-quinoline-3-carboxamide] is 25 to 100%; for `CCOc1ccc2[nH]cc(C(=O)Nc3cc(O)c(C(C)(C)C)cc3C(C)(C)C)c(=O)c2c1` [Compound 524, 6-ethoxy-N-(5-hydroxy-2,4-ditert-butyl-phenyl)-4-oxo-1H-quinoline-3-carboxamide] it is 25 to 100%.
In the case of `O=C(Nc1ccccc1-c1cccc(OC(F)(F)F)c1)c1c[nH]c2ccccc2c1=O` [Compound 253, 4-oxo-N-[2-[3-(trifluoromethoxy)phenyl]phenyl]-1H-quinoline-3-carboxamide], the Emax lay in the range of 25 to 100%.
The same measure, in the same setting: the figure for `CCC1(c2ccc(NC(=O)c3c[nH]c4ccccc4c3=O)cc2)CCC(=O)NC1=O` (stereo not drawn) [Compound 57, N-[4-(3-ethyl-2,6-dioxo-3-piperidyl)phenyl]-4-oxo-1H-quinoline-3-carboxamide] is over 100%; for `CC(C)(C)c1cc2cc[nH]c2cc1NC(=O)c1c[nH]c2cc(C#N)ccc2c1=O` [Compound 558, 7-cyano-4-oxo-N-(5-tert-butyl-1H-indol-6-yl)-1H-quinoline-3-carboxamide] it is 25 to 100%; for `CC(C)c1ccc(NC(=O)c2c[nH]c3c(F)cccc3c2=O)c(C(F)(F)F)c1` [Compound 573, 8-fluoro-N-[4-isopropyl-2-(trifluoromethyl)phenyl]-4-oxo-1H-quinoline-3-carboxamide] it is 25 to 100%.
Same read-out and setting: the figure for `O=C(Nc1ccccc1N1CCCC1)c1c[nH]c2ccccc2c1=O` [Compound 295, 4-oxo-N-(2-pyrrolidin-1-ylphenyl)-1H-quinoline-3-carboxamide] is 25 to 100%; for `CC1(C)CCCNc2cc(NC(=O)c3c[nH]c4ccccc4c3=O)ccc21` [Compound 35, 1,4-dihydro-N-(2,3,4,5-tetrahydro-5,5-dimethyl-1H-benzo[b]azepin-8-yl)-4-oxoquinoline-3-carboxamide] it is 25 to 100%.
Still for that read-out and setting: the same measure for `CNc1cc(NC(=O)c2c[nH]c3ccccc3c2=O)ccc1C(C)(C)C` [Compound 484, N-(3-methylamino-4-tert-butyl-phenyl)-4-oxo-1H-quinoline-3-carboxamide]: 25 to 100%.
Regarding `CC1(c2ccc(NC(=O)c3c[nH]c4cccc(O)c4c3=O)cc2O)CCCCC1` [Compound 606, 5-hydroxy-N-[3-hydroxy-4-(1-methylcyclohexyl)-phenyl]-4-oxo-1H-quinoline-3-carboxamide], the Emax was under 25%.
Still for that read-out and setting: the same measure for `O=C(Nc1cccc(S(=O)(=O)N2CCCC2)c1)c1c[nH]c2ccccc2c1=O` [Compound 24, 4-oxo-N-(3-pyrrolidin-1-ylsulfonylphenyl)-1H-quinoline-3-carboxamide]: under 25%; for `CCc1ccc2ncc(C(=O)Nc3ccc4cc[nH]c4c3)c(O)c2c1` [Compound 67, 6-ethyl-4-hydroxy-N-(1H-indol-6-yl)quinoline-3-carboxamide]: 25 to 100%; for `O=C(Nc1ccccc1)c1c[nH]c2cc(Cl)ccc2c1=O` [Compound 411, 7-chloro-4-oxo-N-phenyl-1H-quinoline-3-carboxamide]: 25 to 100%.
The same measure, in the same setting: the same measure for `N#CCc1ccccc1NC(=O)c1c[nH]c2ccccc2c1=O` [Compound 308, N-[2-(cyanomethyl)phenyl]-4-oxo-1H-quinoline-3-carboxamide]: 25 to 100%; for `O=C(Nc1ccccc1)c1c[nH]c2cc(C(F)(F)F)ccc2c1=O` [Compound 346, 4-oxo-N-phenyl-7-(trifluoromethyl)-1H-quinoline-3-carboxamide]: 25 to 100%.
For the compound `O=C(Nc1ccccc1-c1ccc(Cl)cc1Cl)c1c[nH]c2ccccc2c1=O` [Compound 139, N-[2-(2,4-dichlorophenyl)phenyl]-4-oxo-1H-quinoline-3-carboxamide], the Emax lay in the range of 25 to 100%.
In the case of `O=C(Nc1ccc2cc[nH]c2c1)c1cnc2ccc(Cl)cc2c1O` [Compound 358, 6-chloro-4-hydroxy-N-(1H-indol-6-yl)quinoline-3-carboxamide], the Emax was in the range of 25 to 100%.
Same read-out and setting: the figure for `Cn1cnnc1-c1ccc(NC(=O)c2c[nH]c3ccccc3c2=O)cc1` [Compound 301, N-[4-(4-methyl-4H-1,2,4-triazol-3-yl)phenyl]-4-oxo-1H-quinoline-3-carboxamide] is under 25%; for `Cc1ccc(C(N)=O)c(NC(=O)c2c[nH]c3ccccc3c2=O)c1` [Compound 335, N-(2-carbamoyl-5-methyl-phenyl)-4-oxo-1H-quinoline-3-carboxamide] it is under 25%.
Same read-out and setting: the figure for `O=C(Nc1ccc(N2CCC(CO)CC2)cc1C(F)(F)F)c1c[nH]c2ccccc2c1=O` [Compound 668, N-[4-[4-(hydroxymethyl)-1-piperidyl]-2-(trifluoromethyl)phenyl]-4-oxo-1H-quinoline-3-carboxamide] is 25 to 100%.
The same measure, in the same setting: the figure for `COC(=O)[C@@H]1[C@@H](C)CCN1c1ccc(NC(=O)c2c[nH]c3ccccc3c2=O)c(C(F)(F)F)c1` [Compound 530, (2S,3S)-methyl 3-methyl-1-(4-(4-oxo-1,4-dihydroquinoline-3-carboxamido)-3-(trifluoromethyl)phenyl)pyrrolidine-2-carboxylate] is 25 to 100%; for `COC(=O)c1cccc(-c2cc(C(C)(C)C)c(O)cc2NC(=O)c2c[nH]c3ccccc3c2=O)c1` [Compound 231, 3-[4-hydroxy-2-[(4-oxo-1H-quinolin-3-yl)carbonylamino]-5-tert-butyl-phenyl]benzoic acid methyl ester] it is 25 to 100%; for `CC(O)c1ccc(NC(=O)c2c[nH]c3ccccc3c2=O)cc1` (stereo not drawn) [Compound 450, N-[4-(1-hydroxyethyl)phenyl]-4-oxo-1H-quinoline-3-carboxamide] it is 25 to 100%.
As to `O=C(Nc1ccc2ccn(Cc3ccccc3)c2c1)c1c[nH]c2ccccc2c1=O` [Compound 203, N-(1-benzyl-1H-indol-6-yl)-4-oxo-1H-quinoline-3-carboxamide], the Emax lay in the range of 25 to 100%.
